Data taken from patent US20260365696A1, “INHIBITORS OF PTP1B / NCK1 INTERACTION AND METHODS OF MAKING AND USING SAME” (Radella Pharmaceuticals LLC, priority 2023, published 2026).
Non-standard residues stand in square brackets, D forms with d. Residues, ends and D or L forms follow the SMILES beside them. pGlu = O=C1CC[C@@H](C(=O)O)N1

molecular target: T1, SH3-2 domain of NCK1 (Homo sapiens, UniProt P16333); experiment: Isothermal titration calorimetry (ITC) binding to NCK1 SH3-2 domain; conditions: Alanine scanning of the MD17 15-mer peptide; ITC, 25 °C, pH 8.0
T1 construct: To amplify the NCK1 SH3-2 domain, the primers; 10xHis tag with TEV site (vector pSF-OXB20-NH2-10HIS) (N, cleaved yes); made in house; host or cells: E. coli C43(DE3)
Description: Human PTP1B cDNA (NM_002827) and human NCK1 cDNA (NM 006153) were obtained (Origene, MD, USA). PTP1B Primers were designed to amplify the ORFs with added homology to the cut vector (EcoRI-digested pSF-OXB20-NH2-10HIS) in the forward primer sequence. To amplify full-length PTP1B, the primers ptp1b_FL_fwd ([…]) (SEQ ID NO: 159) and ptp1b_FL_rev ([…]) (SEQ ID NO: 160) were used. To amplify truncations of PTP1B, the following primer pairs were used: ptp1b_FL-Fwd and one of Ptplb_323stop_rev (gtgcaggaggagttcgaatt[…]) (SEQ ID NO: 161), ptp1b_344stop_rev ([…]) (SEQ ID NO: 162) or ptp1b_278stop_rev([…]) (SEQ ID NO: 163). To amplify the NCK1 SH3-2 domain, the primers ncklsh32_fwd ([…]) (SEQ ID NO: 164) and ncklsh32_rev ([…]) (SEQ ID NO: 165) were used. The amplified fragments were purified using a DNA clean-up kit according to manufacturer's instructions (QIAquick PCR purification kit, Qiagen).
To produce and purify fusion proteins, a culture was inoculated with 1% of overnight-cultured inoculum. Protein expression was carried out under the conditions described above, scaled up as necessary. Cells expressing the recombinant proteins were harvested in 50 mL tubes by centrifugation and stored at −80 °C. Cells containing the expressed gene product were thawed over ice and resuspended in Extraction buffer (10 mM Tris, pH 7.4 or 10 mM Sodium Phosphate, pH 8.0; 300 mM NaCl, 1 mM DTT or TCEP; 0-10% glycerol and 1 μg lysozyme) and sonicated over ice (4 °C) for 3 min total using pulses of 5 s with 15 s intervals, using a wide probe at 15 amplitude microns (Soniprep 150, MSE). Insoluble material was removed from the lysate by centrifugation at 20K rpm for 20-60 min at 4 °C. Supernatant was filtered through a 0.22 μm PVDF filter membrane and applied to 1-2 5 mL HisTrap FF Crude (Cytiva) prepacked Ni columns and connected to an AKTA explorer. After thorough washing with binding buffer (10 mM Tris, pH 7.4 or 10 mM Sodium Phosphate, pH 8.0; 300 mM NaCl; 1 mM DTT or TCEP and 25 mM Imidazole), protein was eluted using elution buffer (10 mM Tris, pH 7.4 or 10 mM Sodium Phosphate, pH 8.0; 150-300 mM NaCl; 1 mM DTT or TCEP and 250 mM Imidazole). Fractions containing protein of interest were confirmed by SDS PAGE. Protein was diluted with GF buffer (10 mM Tris, pH 7.4 or 10 mM Sodium Phosphate, pH 8.0; 150-300 mM NaCl) and subjected to TEV protease treatment overnight at 4-10 °C. Following proteolytic digestion, HIS-tag and TEV protease were removed by filtration through a clean 5 mL HisTrap FF Crude (Cytiva) prepacked Ni column. Protein was concentrated on a PES ultrafiltration device by centrifugation at 4000 rpm at 4 °C, and protein was polished via a HiPrep S-100 26/60 (Cytiva) using GF buffer (as described above). Purified proteins were concentrated using ultrafiltration, and protein concentration was determined using ultraviolet-visible spectroscopy. The integrity and identity of all proteins were verified by mass spectrographic analysis.
Isothermal titration calorimetry (ITC) was used to determine binding affinities for peptides against the SH3-2 domain of NCK1. Experiments were conducted at 25 °C using either a MicroCal iTC200 or MicroCal PEAQ-ITC calorimeter. The buffer used for all ITC experiments was 10 mM sodium [COMPOUND LEFT OUT] mM sodium chloride (pH=8.0). A series of peptides (concentration 3-7.5 mM) were titrated in to NCK1 SH3-2 domain (concentration 0.125-0.3 mM) using the following conditions: one injection of 0.2 μL followed by 19 injections of 2 μL, 120-150 seconds spacing between injections, at 25 °C. The data were fit using analysis software provided by the manufacturer and affinity values were calculated. The best fitting occurred when the number of sites was between 0.8 and 1.2. The experiments were repeated twice for a total of three times, and the average binding affinity for each peptide was generated. […]

| Molecule | Kd |
| --- | --- |
| Ac-PPPEHIPPAPRPPKR-NH2 [MH001] | ≤ 300 µM |
| Ac-PPPEHIPPPARPPKR-NH2 [MH002] | > 1000 µM |
| Ac-PPPEHIPPPPRPAKR-NH2 [MH005] | > 1000 µM |

Continued, values first:

| Kd | Molecule |
| --- | --- |
| ≤ 300 µM | Ac-PPPEHIAPPPRPPKR-NH2 [MSJ018] |
| ≤ 300 µM | Ac-PPPAHIPPPPRPPKR-NH2 [MSJ015] |
| ≤ 300 µM | Ac-PPPEHIPAPPRPPKR-NH2 [MSJ019] |
| ≤ 300 µM | Ac-PAPEHIPPPPRPPKR-NH2 [MSJ013] |

same assay, conditions: Alanine scanning of the MD20 6-mer peptide; ITC, 25 °C, pH 8.0

| Kd | Molecule |
| --- | --- |
| 300 to 600 µM | Ac-PRPPAR-NH2 [MH012, Ac-PRPPAR-NH2] |

same assay, conditions: Modified MD18/MD20 peptides; ITC, 25 °C, pH 8.0

| Kd | Molecule |
| --- | --- |
| ≤ 300 µM | Ac-APRPPKR-NH2 [MH047, Ac-APRPPKR-NH2] |
| ≤ 300 µM | N=C(N)NCCC[C@H](NC(=O)[C@H](CCCCN)NC(=O)[C@@H]1CCCN1C(=O)[C@@H]1CCCN1C(=O)[C@H](CCCNC(=N)N)NC(=O)[C@@H]1CCCN1C(=O)[C@@H]1CCC(=O)N1)C(N)=O [MH043, H-Pyr-PRPPKR-NH2] ([pGlu]PRPPKR-NH2) |
| ≤ 300 µM | H-PPRPPKR-NH2 [MH075, H-PPRPPKR-NH2] |

same assay, conditions: N- or C-terminal extensions; ITC, 25 °C, pH 8.0; 30-mers tested one to three times

| Kd | Molecule |
| --- | --- |
| ≤ 300 µM | Ac-SVQDQWKELSHEDLEPPPEHIPPPPRPPKR-NH2 [MH136] |
| ≤ 300 µM | Ac-PPRPPKRIL-NH2 [MH064] |
| ≤ 300 µM | Ac-HEDLEPPPEHIPPPPRPPKR-NH2 [MH090] |

same assay, conditions: Peptide truncation analysis; ITC, 25 °C, pH 8.0

| Kd | Molecule |
| --- | --- |
| ≤ 300 µM | Ac-PPEHIPPPPRPPKR-NH2 [MH030] |
| ≤ 300 µM | Ac-EHIPPPPRPPKR-NH2 [MH028] |
| ≤ 300 µM | Ac-APRPPKR-NH2 [MH047, Ac-APRPPKR-NH2] |
| > 1000 µM | CC(=O)N1CCC[C@H]1C(=O)N1CCC[C@H]1C(=O)N[C@@H](CCCCN)C(N)=O [MH015, Ac-PPK-NH2] (Ac-Pro-Pro-Lys-NH2) |
| ≤ 300 µM | Ac-PEHIPPPPRPPKR-NH2 [MH029] |
| > 1000 µM | CC(=O)N1CCC[C@H]1C(=O)N[C@@H](CCCCN)C(=O)N[C@@H](CCCNC(=N)N)C(N)=O [MH014, Ac-PKR-NH2] (Ac-Pro-Lys-Arg-NH2) |

same assay, conditions: Sliding window peptide analysis; ITC, 25 °C, pH 8.0

| Kd | Molecule |
| --- | --- |
| > 1000 µM | Ac-PPEHIP-NH2 [MH040, Ac-PPEHIP-NH2] |

same assay, conditions: substitutions at position 1 of MD18; ITC, 25 °C, pH 8.0

| Molecule | Kd |
| --- | --- |
| Ac-APRPPKR-NH2 [MH047, Ac-APRPPKR-NH2] | ≤ 300 µM |
| Ac-NPRPPKR-NH2 [MH069, Ac-NPRPPKR-NH2] | ≤ 300 µM |
| Ac-FPRPPKR-NH2 [MH073, Ac-FPRPPKR-NH2] | ≤ 300 µM |
| Ac-SPRPPKR-NH2 [MH074, Ac-SPRPPKR-NH2] | ≤ 300 µM |

Further lines, results first:

| Kd | Molecule |
| --- | --- |
| ≤ 300 µM | Ac-YPRPPKR-NH2 [MH119, Ac-YPRPPKR-NH2] |
| ≤ 300 µM | Ac-MPRPPKR-NH2 [MH109, Ac-MPRPPKR-NH2] |
| ≤ 300 µM | Ac-TPRPPKR-NH2 [MH113, Ac-TPRPPKR-NH2] |

same assay, conditions: substitutions at position 3 of MD18; ITC, 25 °C, pH 8.0

| Kd | Molecule |
| --- | --- |
| ≤ 300 µM | Ac-PPSPPKR-NH2 [MH059, Ac-PPSPPKR-NH2] |
| ≤ 300 µM | Ac-PPEPPKR-NH2 [MH058, Ac-PPEPPKR-NH2] |
| ≤ 300 µM | Ac-PPHPPKR-NH2 [MH057, Ac-PPHPPKR-NH2] |
| 300 to 600 µM | Ac-PPWPPKR-NH2 [MH056, Ac-PPWPPKR-NH2] |
| ≤ 300 µM | Ac-PPPPPKR-NH2 [MH106, Ac-PPPPPKR-NH2] |

same assay, conditions: substitutions at position 4 of MD18 in a 7-mer; ITC, 25 °C, pH 8.0

| Kd | Molecule |
| --- | --- |
| 300 to 600 µM | Ac-PPRRPKR-NH2 [MH062, Ac-PPRRPKR-NH2] |
| > 1000 µM | Ac-PPRQPKR-NH2 [MH131, Ac-PPRQPKR-NH2] |
| > 1000 µM | Ac-PPRMPKR-NH2 [MH111, Ac-PPRMPKR-NH2] |
| 300 to 600 µM | Ac-PPRKPKR-NH2 [MH104, Ac-PPRKPKR-NH2] |

same assay, conditions: substitutions at position 6 of MD18; ITC, 25 °C, pH 8.0

| Kd | Molecule |
| --- | --- |
| ≤ 300 µM | Ac-PPRPPVR-NH2 [MH126, Ac-PPRPPVR-NH2] |
| ≤ 300 µM | Ac-PPRPPSR-NH2 [MH052, Ac-PPRPPSR-NH2] |
| ≤ 300 µM | Ac-PPRPPLR-NH2 [MH102, Ac-PPRPPLR-NH2] |
| ≤ 300 µM | Ac-PPRPPMR-NH2 [MH112, Ac-PPRPPMR-NH2] |

same assay, conditions: substitutions at position 8 of the 8-mer MH063; ITC, 25 °C, pH 8.0; certain peptides tested one to three times

| Kd | Molecule |
| --- | --- |
| ≤ 300 µM | Ac-PPRPPKRH-NH2 [MH146] |
| ≤ 300 µM | Ac-PPRPPKRG-NH2 [MH145] |
| ≤ 300 µM | Ac-PPRPPKRC-NH2 [MH142] |
| ≤ 300 µM | Ac-PPRPPKRS-NH2 [MH152] |
| ≤ 300 µM | Ac-PPRPPKRA-NH2 [MH138] |
| ≤ 300 µM | Ac-PPRPPKRF-NH2 [MH150] |
| 300 to 600 µM | Ac-PPRPPKRP-NH2 [MH151] |
| ≤ 300 µM | Ac-PPRPPKRW-NH2 [MH154] |
| ≤ 300 µM | Ac-PPRPPKRN-NH2 [MH140] |
